The values that follow come from ChEMBL document CHEMBL3817730, “Design, synthesis and antimetastatic evaluation of 1-benzothiazolylphenylbenzotriazoles for photodynamic therapy in oral cancer cells” (Medchemcomm, 2016).

The nature of data set [1]: Cytotoxicity against human Ca9-22 cells assessed as cell survival at 5 uM preincubated for 4 hrs followed by 1 Jcm'-2 UVA irradiation measured after 24 hrs by MTT assay relative to control. Format: cell-based. The note with it: read-out: Survival. A general note: Formazan colour is commonly taken as a measure of viable cells.
The test system of data set [2] is Ca9-22. In words: Anti-metastatic activity against human Ca9-22 cells assessed as inhibition of cell migration at 2 uM preincubated for 2 hrs followed by 0.5 Jcm'-2 UVA irradiation measured after 16 hrs by wound healing assay relative to control. Type of data set: functional. The note with it: Ca9-22, light or radiation study.
Data set [3] has as its system Ca9-22. Kind of data set: Antiinvasive activity against human Ca9-22 cells assessed as cell invasion at 2 uM preincubated for 2 hrs followed by 0.5 Jcm'-2 UVA irradiation measured after 22 hrs by boyden chamber assay relative to control. Type of data set: functional.
Data set [4] deals with Epidermal growth factor receptor (Homo sapiens) (UniProt P00533). Kind of data set: Inhibition of phosphorylated EGFR level in human Ca9-22 cells at 2 uM preincubated for 2 hrs followed by 0.5 Jcm'-2 UVA irradiation by Western blot analysis. Format: cell-based. Background: Immunoblotting shows a protein as a band on a membrane.
Chain of Epidermal growth factor receptor (Homo sapiens) (UniProt P00533) (P00533 whole entry): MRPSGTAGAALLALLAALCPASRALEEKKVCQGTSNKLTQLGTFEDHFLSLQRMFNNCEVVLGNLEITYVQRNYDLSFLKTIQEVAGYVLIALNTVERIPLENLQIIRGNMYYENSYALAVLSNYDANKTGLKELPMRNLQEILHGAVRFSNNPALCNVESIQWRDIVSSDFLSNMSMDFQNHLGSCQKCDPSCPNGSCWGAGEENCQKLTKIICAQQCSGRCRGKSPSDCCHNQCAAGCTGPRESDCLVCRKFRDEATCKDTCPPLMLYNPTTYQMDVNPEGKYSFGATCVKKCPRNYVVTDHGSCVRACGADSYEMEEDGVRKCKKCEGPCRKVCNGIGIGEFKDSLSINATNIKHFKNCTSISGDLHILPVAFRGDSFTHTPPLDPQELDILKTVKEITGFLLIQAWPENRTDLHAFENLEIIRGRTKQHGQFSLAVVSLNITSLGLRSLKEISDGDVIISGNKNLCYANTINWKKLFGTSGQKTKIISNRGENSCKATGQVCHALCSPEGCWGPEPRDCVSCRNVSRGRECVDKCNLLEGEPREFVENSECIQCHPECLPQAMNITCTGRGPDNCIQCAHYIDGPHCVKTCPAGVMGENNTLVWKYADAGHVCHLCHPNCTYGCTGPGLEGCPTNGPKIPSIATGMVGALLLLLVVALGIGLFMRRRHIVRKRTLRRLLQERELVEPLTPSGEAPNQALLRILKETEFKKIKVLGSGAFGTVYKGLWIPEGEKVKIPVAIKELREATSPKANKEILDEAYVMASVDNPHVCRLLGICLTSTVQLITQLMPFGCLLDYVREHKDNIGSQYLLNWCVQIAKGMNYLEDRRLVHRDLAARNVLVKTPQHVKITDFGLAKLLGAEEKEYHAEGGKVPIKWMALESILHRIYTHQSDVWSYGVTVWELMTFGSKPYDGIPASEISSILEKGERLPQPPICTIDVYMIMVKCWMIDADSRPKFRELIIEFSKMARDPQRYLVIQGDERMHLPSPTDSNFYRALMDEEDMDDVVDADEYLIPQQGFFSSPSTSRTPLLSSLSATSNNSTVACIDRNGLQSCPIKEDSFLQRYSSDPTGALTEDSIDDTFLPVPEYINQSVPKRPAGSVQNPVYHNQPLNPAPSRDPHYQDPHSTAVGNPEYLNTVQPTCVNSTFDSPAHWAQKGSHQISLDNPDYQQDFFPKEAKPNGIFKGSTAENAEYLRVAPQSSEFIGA
Data set [5] concerns Ca9-22. Kind of data set: Inhibition of phosphorylated ERK level in human Ca9-22 cells at 2 uM preincubated for 2 hrs followed by 0.5 Jcm'-2 UVA irradiation by Western blot analysis. Type of data set: cell-based.
The target in data set [6] is T1, Epidermal growth factor receptor (Homo sapiens) (UniProt P04626+P00533+Q15303+P21860). Kind of data set: Inhibition of EGFR/ERK signalling in human Ca9-22 cells assessed as reduction in MMP2 expression at 2 uM preincubated for 2 hrs followed by 0.5 Jcm'-2 UVA irradiation by Western blot analysis. Type of data set: cell-based.
In data set [7] the target is T1, Epidermal growth factor receptor (Homo sapiens). Kind of data set: Inhibition of EGFR/ERK signalling in human Ca9-22 cells assessed as reduction in MMP9 expression at 2 uM preincubated for 2 hrs followed by 0.5 Jcm'-2 UVA irradiation by Western blot analysis. Format: cell-based.
For data set [8], the system named is Ca9-22. Kind of data set: Increase in TIMP3 expression in human Ca9-22 cells at 2 uM preincubated for 2 hrs followed by 0.5 Jcm'-2 UVA irradiation by Western blot analysis. Format: functional, cell-based.
The nature of data set [9]: Cytotoxicity against human Ca9-22 cells assessed as inhibition of cell survival at 2 uM preincubated for 2 hrs followed by 0.5 Jcm'-2 UVA irradiation measured after 24 hrs by MTT assay relative to control. Format: cell-based. The note with it: read-out: INH.
Data set [10] relates to Ca9-22. In words: Anti-metastatic activity against human Ca9-22 cells assessed as increase in syndecan-1 mRNA expression at 2 uM preincubated for 2 hrs followed by 0.5 Jcm'-2 UVA irradiation measured after 8 hrs by qRT-PCR method. Type of data set: functional, cell-based.
The subject of data set [11] is Ca9-22. In words: Anti-metastatic activity against human Ca9-22 cells assessed as increase in TIMP3 mRNA expression at 2 uM preincubated for 2 hrs followed by 0.5 Jcm'-2 UVA irradiation measured after 8 hrs by qRT-PCR method. Format: functional, cell-based. (Real-time PCR tracks product formation cycle by cycle.)
Data set [12] deals with Ca9-22. Kind of data set: Anti-metastatic activity against human Ca9-22 cells assessed as reduction in heparanase mRNA expression at 2 uM preincubated for 2 hrs followed by 0.5 Jcm'-2 UVA irradiation measured after 8 hrs by qRT-PCR method. Type of data set: functional, cell-based.
The target of data set [13] is T1, Epidermal growth factor receptor (Homo sapiens). In words: Inhibition of EGFR/ERK signalling in human Ca9-22 cells assessed as reduction in MMP2 mRNA expression at 2 uM preincubated for 2 hrs followed by 0.5 Jcm'-2 UVA irradiation measured after 8 hrs by qRT-PCR method. Format: cell-based.
For data set [14] the target is unchanged. Kind of data set: Inhibition of EGFR/ERK signalling in human Ca9-22 cells assessed as reduction in MMP9 mRNA expression at 2 uM preincubated for 2 hrs followed by 0.5 Jcm'-2 UVA irradiation measured after 8 hrs by qRT-PCR method. Type of data set: cell-based.

Calls of active or inactive are those of the source. The calls are words filed in the database; no cut-off is given here.

For `CCc1ccc2nc(-c3ccc(-n4nnc5ccccc54)c(C)c3)sc2c1`, the viability at 24 h, 5 µM in data set [1] came out at 50.2%. In the data set on Ca9-22 [2], the inhibition (commonly the share of the control response that was lost under treatment) at 2 µM was found to be 70.1%. In addition, the Activity in the data set on Ca9-22 [3] turned out to be 47%. The inhibition result (in data set [4]; in the data set with Ca9-22 [5]; in [6]; in data set [7]) was “Active” each time. For the same compound, the outcome in the data set with Ca9-22 [8] was Active.
Take `COc1ccc2nc(-c3ccc(-n4nnc5ccccc54)cc3)sc2c1`: in data set [1], the viability at 24 h, 5 µM came to 44.1%. Moreover, in data set [9], the cytotoxicity at 24 h, 2 µM came to 20%. Further, in the data set on Ca9-22 [2], the inhibition at 2 µM came to 68.7%. For the same compound, the Activity in the data set on Ca9-22 [3] was 38.9%. Besides, the result in the data set with Ca9-22 [10], in the data set on Ca9-22 [11], with Ca9-22 [12] and in the data set on Ca9-22 [8] was Active. Also, the inhibition result (in data set [13]; in [14]; in data set [4]; with Ca9-22 [5]; in data set [6]; in data set [7]) was “Active” throughout.
Regarding `c1ccc2sc(-c3ccc(-n4nnc5ccccc54)cc3)nc2c1`, the viability at 24 h, 5 µM in data set [1] turned out to be 95.5%.
Consider `COc1ccc2c(c1)nnn2-c1ccc(-c2nc3ccccc3s2)cc1C`, for which, in data set [1], the viability at 24 h, 5 µM turned out to be 79.6%. For the same compound, the inhibition at 2 µM in the data set on Ca9-22 [2] came to 18.5%. Moreover, the Activity with Ca9-22 [3] was found to be 75.9%.
On to `COc1ccc2c(c1)nnn2-c1ccc(-c2nc3ccccc3s2)cc1`, for which the viability at 24 h, 5 µM in data set [1] was found to be 104%.
Turning to `CCc1ccc2nc(-c3ccc(-n4nnc5ccccc54)cc3)sc2c1`, in [1], the viability at 24 h, 5 µM was 109%.
`Cc1cc(-c2nc3ccc(C(F)(F)F)cc3s2)ccc1-n1nnc2ccccc21`: the viability at 24 h, 5 µM in data set [1] was found to be 89.4%.
The same measure, in the same setting: under `COc1ccc2c(c1)nnn2-c1ccc(-c2nc3ccc(C(F)(F)F)cc3s2)cc1` stands 105%; under `CCc1ccc2nc(-c3ccc(-n4nnc5cc(OC)ccc54)cc3)sc2c1`, 114%.
Turning to `CCc1ccc2nc(-c3ccc(-n4nnc5cc(OC)ccc54)c(C)c3)sc2c1`, the viability at 24 h, 5 µM in data set [1] is 73.1%. Further, the inhibition at 2 µM in the data set on Ca9-22 [2] turned out to be 31.1%. Besides, the Activity with Ca9-22 [3] turned out to be 70%.
Turning to `COc1ccc2c(c1)nnn2-c1ccc(-c2nc3ccc(OC)cc3s2)cc1C`, the viability at 24 h, 5 µM in data set [1] worked out at 63.3%.
Take `COc1ccc2nc(-c3ccc(-n4nnc5ccccc54)c(C)c3)sc2c1`: in data set [1], the viability at 24 h, 5 µM was found to be 82.1%.
`COc1ccc2c(c1)nnn2-c1ccc(-c2nc3ccc(OC)cc3s2)cc1`: in data set [1], the viability at 24 h, 5 µM amounted to 81.1%. Besides, in the data set with Ca9-22 [2], the inhibition at 2 µM came out at 51.7%. Further, the Activity in the data set on Ca9-22 [3] stood at 108.6%.
In the case of `FC(F)(F)c1ccc2nc(-c3ccc(-n4nnc5ccccc54)cc3)sc2c1`, in data set [1], the viability at 24 h, 5 µM came to 91.8%.
`Cc1cc(-c2nc3ccccc3s2)ccc1-n1nnc2ccccc21`: the viability at 24 h, 5 µM in data set [1] was 48.6%. Also, in the data set on Ca9-22 [2], the inhibition at 2 µM stood at 45.8%. In the data set on Ca9-22 [3], the Activity stood at 47.6%. Further, the inhibition result (in [4]; in the data set on Ca9-22 [5]; in [6]; in data set [7]) was “Active” in each case. Further, the outcome in the data set with Ca9-22 [8] was Active.
`COc1ccc2c(c1)nnn2-c1ccc(-c2nc3ccc(C(F)(F)F)cc3s2)cc1C`: the viability at 24 h, 5 µM in [1] stood at 113%.
